pIC50: −log10 of the molar value.
Legend:
Recombinant human LOXL1 = target: T1, Recombinant human LOXL1 (Homo sapiens, UniProt Q08397); assay: Standard Amplex Red assay, rh LOXL1; assay type: biochemical; details: 30 min pre-incubation
T1 sequence (Q08397 96-574): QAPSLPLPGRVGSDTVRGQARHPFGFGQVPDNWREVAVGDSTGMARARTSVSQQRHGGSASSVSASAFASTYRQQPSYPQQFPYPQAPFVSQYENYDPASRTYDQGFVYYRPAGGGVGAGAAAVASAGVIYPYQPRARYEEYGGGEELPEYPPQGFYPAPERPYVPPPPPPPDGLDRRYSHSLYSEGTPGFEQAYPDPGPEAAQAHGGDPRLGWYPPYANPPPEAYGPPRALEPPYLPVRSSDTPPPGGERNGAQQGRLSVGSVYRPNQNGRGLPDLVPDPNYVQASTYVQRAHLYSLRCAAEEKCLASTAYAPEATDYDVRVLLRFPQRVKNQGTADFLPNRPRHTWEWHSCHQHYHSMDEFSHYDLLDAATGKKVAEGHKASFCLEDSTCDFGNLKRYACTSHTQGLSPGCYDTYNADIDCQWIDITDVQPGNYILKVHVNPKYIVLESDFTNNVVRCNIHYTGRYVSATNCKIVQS
Excerpt: (§1) FIGURE 1 Characteristics of the activity‐based probe (ABP) PXS‐5878. (A) Chemical structure of PXS‐5878, with functional subunits denoted with different colours. The fluoroallylamine moiety (blue) was designed to interact with the lysine tyrosylquinone (LTQ) co‐factor within the lysyl oxidase active sites. An extended linker (green) was incorporated to provide optimal separation between the reactive functional group and the tag, avoiding unfavourable steric hindrance. Biotin was selected as a tag, with higher sensitivity found to be achieved using a double tag (red), resulting in PXS‐5878 as the preferred ABP. (B) Concentration‐dependent inhibition of recombinant human (rh) lysyl oxidase‐like 1‐4 (LOXL1‐4) and native bovine LOX in a standard Amplex Red assay with 30 min pre‐incubation; n = 3–4 independent experiments, standard error of mean (SEM). Native bovine LOX was used as a surrogate for human LOX as both enzymes have similar pharmacology for fluoroallylamines.[2], [9] (C) Irreversible nature of PXS‐5878 enzyme inhibition confirmed using a jump dilution assay. […]
(§2) FIGURE 2 Characteristics of PXS‐5338 and inhibition of lysyl oxidase‐like 2 (LOXL2) enzymatic activity in vitro and in vivo. […] (B) Tissue levels of PXS‐5338 measured 1 and 4 h after a single oral dose of 30 mg/kg in the rat. […]

LOXL3 = target: T2, LOXL3 (Homo sapiens, UniProt P58215); assay: Standard Amplex Red assay, rh LOXL3; assay type: biochemical; details: 30 min pre-incubation
T2 sequence (P58215 26-753): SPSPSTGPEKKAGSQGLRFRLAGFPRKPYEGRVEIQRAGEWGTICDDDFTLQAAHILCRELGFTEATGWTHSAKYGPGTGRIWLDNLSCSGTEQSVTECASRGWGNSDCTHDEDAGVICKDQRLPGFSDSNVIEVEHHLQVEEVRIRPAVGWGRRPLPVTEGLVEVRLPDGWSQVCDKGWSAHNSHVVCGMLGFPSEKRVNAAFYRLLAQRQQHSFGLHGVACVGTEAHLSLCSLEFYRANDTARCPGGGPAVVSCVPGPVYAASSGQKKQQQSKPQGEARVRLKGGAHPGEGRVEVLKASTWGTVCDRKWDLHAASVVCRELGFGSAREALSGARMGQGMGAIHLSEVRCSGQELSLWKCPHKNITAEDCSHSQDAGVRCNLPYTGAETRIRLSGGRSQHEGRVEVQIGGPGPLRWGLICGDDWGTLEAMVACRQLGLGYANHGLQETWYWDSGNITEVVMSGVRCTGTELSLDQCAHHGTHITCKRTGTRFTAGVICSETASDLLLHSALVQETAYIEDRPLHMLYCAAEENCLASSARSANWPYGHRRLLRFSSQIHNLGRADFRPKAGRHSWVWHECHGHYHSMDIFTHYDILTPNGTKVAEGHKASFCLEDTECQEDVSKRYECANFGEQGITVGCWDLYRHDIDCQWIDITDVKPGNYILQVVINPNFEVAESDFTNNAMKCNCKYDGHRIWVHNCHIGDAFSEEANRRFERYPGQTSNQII
Excerpt: as §1, §2

| SMILES | pIC50 (Recombinant human LOXL1) | pIC50 (LOXL3) |
| --- | --- | --- |
| CC(C)c1c(Cc2ccc(S(C)(=O)=O)nc2)c2ncccc2n1C/C(F)=C/CN [PXS-5338] | 5.60 | 6.41 |
| NC/C=C(\F)CS(=O)(=O)c1cccc(Cn2cc(-c3cc(OCCCc4cn(CCCCC[C@@H]5SC[C@@H]6NC(=O)N[C@@H]65)nn4)cc(OCCCc4cn(CCCCC[C@@H]5SC[C@@H]6NC(=O)N[C@@H]65)nn4)c3)nn2)c1 [PXS-5878] | 5.75 | 6.01 |

Reference: PMC8571951, “An activity‐based bioprobe differentiates a novel small molecule inhibitor from a LOXL2 antibody and provides renewed promise for anti‐fibrotic therapeutic strategies” (Clinical and Translational Medicine, 2021)
